The source made the active and inactive calls. No cut-off for these calls is given here.
What was measured:
[1] = Binding affinity to MS2-tagged 50s rRNA A-site in Escherichia coli BL21(DE3) by single molecule FRET assay
[2] = Binding affinity to uridylated H69 50s rRNA (unknown origin) by ESI-MS analysis; conditions: for Kd: read-out: Kd(app)
[3] = Binding affinity to pseudouridylated H69 50s rRNA (unknown origin) by ESI-MS analysis; conditions: for Kd: read-out: Kd(app)
[4] = Binding affinity to uridylated H69 50s rRNA (unknown origin) at 2:1 peptide:RNA ratio by ESI-MS analysis; conditions: read-out: Kd(app)
[5] = Binding affinity to pseudouridylated H69 50s rRNA (unknown origin) at 1:1 peptide:RNA ratio by ESI-MS analysis
[6] = Selectivity ratio for uridylated H69 50s rRNA (unknown origin) to pseudouridylated H69 50s rRNA (unknown origin)
[7] = Binding affinity to pseudouridylated H69 50s rRNA (unknown origin) at 2:1 peptide:RNA ratio by ESI-MS analysis
[8] = Binding affinity to 5'-biotin labeled pseudouridylated H69 50s rRNA (unknown origin) at 2:1 peptide:RNA ratio by ESI-MS analysis; conditions: read-out: Kd(app)
[9] = Binding affinity to 5'-biotin labeled uridylated H69 50s rRNA (unknown origin) by ESI-MS analysis
[10] = Binding affinity to pseudouridylated H69 50s rRNA (unknown origin) at 20 uM by ESI-MS analysis
[11] = Binding affinity to 5'-biotin labeled pseudouridylated H69 50s rRNA (unknown origin) by ESI-MS analysis; conditions: read-out: Kd(app)

| Molecule | Kd [2] [µM] | Kd [3] [µM] | further results |
| --- | --- | --- | --- |
| COc1ccc(C[C@H](N)C(=O)N[C@H]2[C@@H](O)[C@H](n3cnc4c(N(C)C)ncnc43)O[C@@H]2CO)cc1 [PUROMYCIN] |  |  | Kd [1]: 480 µM |
| H-AQVANHQ-NH2 | 9.9 |  | Kd(app) [3]: inactive |
| H-NAVANHQ-NH2 | 52.8 | 4.6 |  |
| H-NQAANHQ-NH2 |  |  | Kd [4]: 1 µM; Activity [5]: Active; Selectivity ratio [6]: 23; Kd ([7]; read-out: Kd(app)): 5 µM |
| H-NQRANHQ-NH2 |  |  | Kd [8]: 6 µM; Activity [5]: Active; Activity [7]: Active; Kd(app) [9]: inactive |
| H-NQVAAHQ-NH2 | 14.3 |  | Kd(app) [3]: inactive |
| H-NQVAHAQ-NH2 |  |  | Activity [10]: inactive |
| H-NQVAHHQ-NH2 |  | 16 |  |
| H-NQVANAH-NH2 |  | > 20 |  |
| H-NQVANAQ-NH2 |  |  | Kd(app) [2]: inactive; Kd(app) [3]: inactive |
| H-NQVANHA-NH2 | 47.5 | 13.4 |  |
| H-NQVANHH-NH2 |  | > 20 |  |
| H-NQVANHQ-NH2 | 22.9 | 4.6 | Kd [11]: 3.1 µM |
| H-NQVANHR-NH2 | 20.5 |  | Kd [11]: 31.8 µM |
| H-NQVANRQ-NH2 | 14.4 | 4.5 |  |
| H-NQVARHQ-NH2 | 16.5 |  | Kd(app) [3]: inactive |
| H-NQVRNHQ-NH2 | 21.7 | > 20 |  |
| H-NRVANHQ-NH2 | 35.5 | > 40 |  |
| H-RQVANHQ-NH2 | 10 | 2.1 |  |

— ChEMBL document CHEMBL3822372, “The development of peptide ligands that target helix 69 rRNA of bacterial ribosomes” (Bioorg Med Chem, 2016)
